Experimental findings from patent publication US4849421A, “Anti-anxiety benzothiepino(5,4-c]pyridazines” (Yoshitomi Pharmaceutical Industries, Ltd., priority 1987, dated 1989) are described below.

In general, Ki refers to the dissociation constant of the complex between target and ligand, obtained from inhibition or displacement. A high value points to weaker binding. A word on the ED50: it is the dose at which the effect has come halfway, by size or by number of responders. The low end stands for greater potency, the high end for weaker potency.

One data set deals with benzodiazepine receptor. Nature of the data set: Displacement ability for benzodiazepine receptor ([3H]diazepam binding). Also noted: species or system Wistar rats (cerebral cortex, crude synaptosomal fraction). The settings on record: tritiated diazepam 2 nM, 0° C., 20 minutes, pH 7.4, rat cerebral cortex. As for the experimental part: Compound J: 8-chloro-2-(4-chlorophenyl)-5,6-dihydro-[1]benzothiepino[5,4-c]pyridazin-3(2H)-one 7-oxide Experiment 1: Displacement ability for benzodiazepine receptor:
Experiment on the specific binding for benzodiazepine receptor was performed according to the method described in Life Science, vol. 20, p. 2101 (1977).
A crude synaptosomal fraction was isolated from the cerebral cortex of 9 to 10 week-old male Wistar rats and suspended in 50 mM of Tris-hydrochloric acid buffer solution (pH 7.4) containing 120 mM of sodium chloride and 5 mM of potassium chloride.
To the synaptosomal suspension as prepared above were added various concentrations of test compounds and tritiated diazepam (final concentration: 2 nM), and the mixture was incubated at 0° C. for 20 minutes. Then the suspension was filtered through Whatman GF/B glass fiber filter. After the filter was washed with the foregoing buffer solution, the radioactivity left on the filter was measured by a liquid scintillation spectrometry.
Specific binding was determined by subtracting binding in the presence of 10^-6 M unlabelled diazepam from total binding.
The affinity of the test compounds of the present invention for benzodiazepine receptor is evaluated as an ability to displace tritiated diazepam from the binding site, and is represented as Ki value.

Data set [1] concerns bicuculline-induced tonic convulsion. The data set is described as follows: Anti-bicuculline effect. The class given is in vivo, male ddY-strain mice. The settings on record: Mus musculus, po; mice, p.o. 1 hour before (+)bicuculline 0.6 mg/kg i.v.; tonic convulsion within 5 minutes. As for the experimental part: Experiment 2: Anti-bicuculline effect:
The experiment of anti-bicuculline effect was performed according to the method described in Life Science, vol. 21, p. 1779 (1977).
Groups of 7-14 male ddY-strain mice weighing 20-28 g were used. (+)Bicuculline (0.6 mg/kg) was intraveneously administered 1 hour after the oral administration of test compound, and the ED50, 50% effective dose, was determined by observing the existence of tonic convulsion within 5 minutes.

In another data set the test system is muscle-relaxant effect. Nature of the data set: Muscle-relaxant effect (rotating rod). The class given is in vivo, male mice. To be noted: Mus musculus; mice, oral, 1 hour; rotating rod 11 rpm, drop within 1 minute. The procedure:
Experiment 4: Muscle-relaxant effect:
Groups of 10 male mice each were administered orally with test compounds and an hour later placed on the rotating rod (2.8 cm in diameter) turning at a speed of 11 rpm. The ED50 (mg/kg) was calculated by the probit method as the dose which caused to drop the half number of mice from the rod within 1 minute.

Data set [2] relates to righting reflex. The data set is described as follows: Potentiation of alcoholic effect (ethanol). The class given is in vivo, male mice. The settings on record: mice, oral, 1 hour before 30% ethanol 0.1 ml/10 g i.p.; loss of righting reflex. The procedure: Experiment 6: Potentiation of alcoholic effect:
Groups of 14 male mice, which were set in a room kept at 26° C., were administered orally with test compound and an hour later administered intraperitoneally with 0.1 ml/10 g of 30% ethanol. The righting reflex was tested at 15 and 30 minutes after ethanol treatment. The ED50 (mg/kg) was calculated by the probit method as the dose which caused loss of righting reflex for more than 3 seconds in half the mice.

For data set [3], the system named is number of shock in the punished period. Nature of the data set: Anti-anxiety effect (anti-conflict test, Skinner-box). The class given is in vivo, male rats. The settings on record: Rattus norvegicus; rats, oral; significant increment of number of shock in the punished period; read-out: Anti-anxiety effect MED. As for the experimental part: Experiment 3: Anti-anxiety effect:
The experiment was carried out by using groups of 8 male rats which were maintained at approximately 80% of their free food weights by reducing food and employing a Skinner-box equipped with lever on the side and a grid on the floor.
The rats were placed in the Skinner-box and trained to press a lever in order to obtain milk. According to this training, the rats could obtain 0.1 ml of milk once by pressing the lever twenty times (Fix-ratio 20 reinforcement schedule, FR20).
After the rats was trained to obtain milk for 10 minutes according to FR20 (this period was hereinafter referred to as unpunished period), loud noise was given to the rats for 5 minutes (this period was hereinafter referred to as punished period). In this punished period, the rats could obtain milk everytime when they pushed the lever once, and also received a foot shock (AC 100V, 0.4-0.8 mA) for 0.3 second through the grid.
According to the repeated training of the unpunished period and the punished period, the animals which continuously pushed the lever in the unpunished period and rarely pushed, it in the punished period, and had the number of shock below 10 were provided to the experiment.
After the rats were orally administered with a test compound in 0.5% methylcellulose, the unpunished period (10 minutes) and the punished period (5 minutes) were alternately performed four times to the rats. The number of push of the lever in the unpunished period in 40 minutes and the number of shock in the punished period in 20 minutes were measured, and minimum effective dose (MED, mg/kg) was determined as the dose which observable the significant increment of number of shock in the punished period with being compared to the control group.

The test system of data set [4] is righting reflex. Nature of the data set: Potentiation of narcotic effect (hexobarbital). The class given is in vivo, male mice. The settings on record: mice, oral, 1 hour before hexobarbital 40 mg/kg i.p.; loss of righting reflex. As for the experimental part:
Experiment 5: Potentiation of narcotic effect:
Groups of 14 male mice, which were set in a room kept at 26° C., were administered orally with test compound and an hour later administered intraperitoneally with 40 mg/kg of hexobarbital. The righting reflex was tested at 15 and 30 minutes after hexobarbital treatment. The ED50 (mg/kg) was calculated by the probit method as the dose which caused loss of righting reflex for more than 3 seconds in half the mice.

In the case of `O=c1cc2c(nn1-c1ccc(Cl)cc1)-c1cc(F)ccc1SCC2` [Compound E, 2-(4-chlorophenyl)-10-fluoro-5,6-dihydro[1]benzothiepino[5,4-c]pyridazin-3(2H)-one], the Ki at benzodiazepine receptor is 14 nM. In data set [1], this molecule displayed an ED50 of 2.2 mg/kg.

For `O=c1cc2c(nn1-c1ccc(Cl)cc1)-c1cc(F)ccc1[S+]([O-])CC2` (centres unmarked) [Compound F, 2-(4-chlorophenyl)-10-fluoro-5,6-dihydro-[1]benzothiepino[5,4-c]pyridazin-3(2H)-one 7-oxide], on benzodiazepine receptor, the inhibitory constant (Ki) amounted to 36 nM. In addition, the ED50 in the data set with muscle-relaxant effect worked out at 107 mg/kg; in data set [1] it was 0.72 mg/kg. Also, in the data set with righting reflex [2], the “Potentiation of alcoholic effect ED50” value came to 117 mg/kg. In addition, the minimal effective dose in data set [3] is below 5 mg/kg. Also, the “Potentiation of narcotic effect ED50” value in the data set on righting reflex [4] is listed as 110 mg/kg.

On to `O=c1cc2c(nn1-c1ccc(F)cc1)-c1cc(F)ccc1SCC2` [Compound I, 10-fluoro-2-(4-fluorophenyl)-5,6-dihydro-[1]benzothiepino[5,4-c]pyridazin-3(2H)-one], for which the affinity on benzodiazepine receptor, expressed as Ki, was 43 nM. In data set [1], this molecule yielded an ED50 of 6 mg/kg.

Consider `O=c1cc2c(nn1-c1ccc(Br)cc1)-c1ccccc1[S+]([O-])CC2` (centres unmarked) [Compound G, 2-(4-bromophenyl)-5,6-dihydro-[1]benzothiepino[5,4-c]pyridazin-3(2H)-one 7-oxide], for which the Ki at benzodiazepine receptor turned out to be 34 nM. For the same molecule, in data set [1], the 50% effect level (ED50) was put at a dose of 5.9 mg/kg.

`O=C1CC2CC[S+]([O-])c3ccccc3C2=NN1c1ccc(Br)cc1` (centres unmarked) [Compound H, 2-(4-bromophenyl)-4,4a,5,6-tetrahydro-[1]benzothiepino[5,4-c]pyridazin-3(2H)-one 7-oxide]: at benzodiazepine receptor, the Ki was determined as 44 nM. Besides, the 50% effect level in data set [1] (ED50) was put at a dose of 4.5 mg/kg.

On benzodiazepine receptor, `O=c1cc2c(nn1-c1ccc(Cl)cc1)-c1ccccc1[S+]([O-])CC2` (centres unmarked) [Compound C, 2-(4-chlorophenyl)-5,6-dihydro-[1]benzothiepino[5,4-c]pyridazin-3(2H)-one 7-oxide] yielded a Ki of 37 nM. Further, the ED50 with muscle-relaxant effect was found to be 103 mg/kg; in data set [1] it was 1.2 mg/kg. Also, in the data set on righting reflex [2], the “Potentiation of alcoholic effect ED50” value came out at 44 mg/kg. The minimal effective dose in data set [3] is 2.5 mg/kg. Moreover, in the data set on righting reflex [4], the “Potentiation of narcotic effect ED50” value amounted to 113 mg/kg.

`O=c1cc2c(nn1-c1ccc(Cl)cc1)-c1cc(Cl)ccc1[S+]([O-])CC2` (centres unmarked) [Compound B, 10-chloro-2-(4-chlorophenyl)-5,6-dihydro-[1]benzothiepino[5,4-c]pyridazin-3(2H)-one 7-oxide]: the Ki on benzodiazepine receptor was determined as 11 nM. Also, the 50% effect level in data set [1] (ED50) was put at a dose of 3.2 mg/kg.

Take `O=c1cc2c(nn1-c1ccc(Cl)cc1)-c1ccccc1SCC2` [Compound A, 2-(4-chlorophenyl)-5,6-dihydro-[1]benzothiepino[5,4-c]pyridazin-3(2H)-one]: the inhibition constant (Ki) at benzodiazepine receptor turned out to be 10 nM. Also, in data set [1], the ED50 is 5.5 mg/kg.

With `O=c1cc2c(nn1-c1ccc(Cl)cc1)-c1cccc(Cl)c1[S+]([O-])CC2` (centres unmarked) [Compound J, 8-chloro-2-(4-chlorophenyl)-5,6-dihydro-[1]benzothiepino[5,4-c]pyridazin-3(2H)-one 7-oxide], the affinity on benzodiazepine receptor corresponds to a Ki of 11 nM. Also, the ED50 was above 500 mg/kg in the data set with muscle-relaxant effect and 0.67 mg/kg in data set [1]. The “Potentiation of alcoholic effect ED50” value in the data set with righting reflex [2] is above 500 mg/kg. Besides, the minimal effective dose in data set [3] was below 5 mg/kg. Moreover, the “Potentiation of narcotic effect ED50” value in the data set with righting reflex [4] is on record as above 200 mg/kg.

The molecule `O=C1CC2CC[S+]([O-])c3ccccc3C2=NN1c1ccc(Cl)cc1` (centres unmarked) [Compound D, 2-(4-chlorophenyl)-4,4a,5,6-tetrahydro-[1]benzothiepino[5,4-c]pyridazin-3(2H)-one 7-oxide] showed a Ki at benzodiazepine receptor of 45 nM. In data set [1], this molecule displayed a median effective dose (ED50) of 4.5 mg/kg.
